Laboratory results published in ChEMBL document CHEMBL4024754, “Development of Potent, Protease-Resistant Agonists of the Parathyroid Hormone Receptor with Broad β Residue Distribution” (J Med Chem, 2017).
Numbered stars: 1 amine (or outer) side, 2 acyl side, 3 side chain; on linkers, the order of the positions; unused ones are H or OH. Square brackets hold non-standard residues; d marks the D form. Peptide text beside a SMILES is read from it. * marks the point of attachment. NH(1S,2S-2-CONH2-cPent) = NC(=O)[C@H]1CCC[C@@H]1N*; β3hW = N[C@H](CC(=O)O)Cc1c[nH]c2ccccc12; ACPC(1S,2S) = N[C@H]1CCC[C@@H]1C(=O)*; X1 = O=C([C@H]1CCC[C@@H]1N[*:1])[*:2]; X2 = O=C([C@H]1CNC[C@@H]1N[*:1])[*:2]; hArg = N=C(N)NCCCC[C@H](N)C(=O)O; β3hE = N[C@@H](CCC(=O)O)CC(=O)O; β3hF = N[C@H](CC(=O)O)Cc1ccccc1; β3hK = NCCCC[C@H](N)CC(=O)O; β3hM = CSCC[C@H](N)CC(=O)O; β3hD = NC(CC(=O)O)CC(=O)O; Aib = CC(C)(N)C(=O)O

What was measured:
[1] = biological target: T1, Parathyroid hormone/parathyroid hormone-related peptide receptor (Homo sapiens, UniProt Q03431); test: Agonist activity at human PTH1 receptor expressed in human GP2.3 cells assessed as induction of cAMP after 12 to 20 mins by luciferase reporter gene assay; assay type: functional, cell-based; conditions: read-out: EC50
T1 sequence (Q03431 whole entry): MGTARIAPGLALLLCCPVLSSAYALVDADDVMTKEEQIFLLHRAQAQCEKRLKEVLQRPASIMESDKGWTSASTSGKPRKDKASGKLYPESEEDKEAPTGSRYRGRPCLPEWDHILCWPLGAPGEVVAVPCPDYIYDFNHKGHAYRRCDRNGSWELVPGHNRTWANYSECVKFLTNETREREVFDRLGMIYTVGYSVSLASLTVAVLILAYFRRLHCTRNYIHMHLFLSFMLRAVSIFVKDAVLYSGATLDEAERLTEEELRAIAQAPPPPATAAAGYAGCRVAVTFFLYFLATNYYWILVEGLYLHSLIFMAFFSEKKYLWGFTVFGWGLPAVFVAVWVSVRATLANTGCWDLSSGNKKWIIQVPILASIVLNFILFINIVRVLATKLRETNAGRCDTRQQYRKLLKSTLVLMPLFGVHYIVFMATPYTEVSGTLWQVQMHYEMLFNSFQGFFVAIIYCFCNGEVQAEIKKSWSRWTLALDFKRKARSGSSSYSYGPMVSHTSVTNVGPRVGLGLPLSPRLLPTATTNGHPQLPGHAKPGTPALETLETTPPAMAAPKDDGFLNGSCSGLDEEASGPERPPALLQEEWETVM

[2] = biological target: T2, Parathyroid hormone/parathyroid hormone-related peptide receptor (Homo sapiens) (UniProt Q03431); test: Agonist activity at human PTH1 receptor expressed in human GP2.3 cells assessed as induction of cAMP after 12 to 20 mins by luciferase reporter gene assay relative to PTH(1 to 34 residues)-NH2; assay type: functional, cell-based
T2 sequence (whole entry): T1 sequence (Q03431 whole entry)

Row | Compound | EC50 [1] [nM] | fold change (FC) [2]
1 | CC[C@H](C)[C@H](NC(=O)[C@H](CCC(=O)O)NC(=O)[C@H](C)NC(=O)[C@@H](NC(=O)[C@H](C)N)C(C)C)C(=O)N[C@@H](CCC(N)=O)C(=O)N[C@@H](CC(C)C)C(=O)N[C@@H](CCSC)C(=O)N[C@@H](Cc1cnc[nH]1)C(=O)N[C@@H](CCC(N)=O)C(=O)N[C@@H](CCCCNC(=N)N)C(=O)N[C@@H](C)C(=O)N[C@@H](CCCCN)C(=O)N[C@H]1CCC[C@@H]1C(=O)N[C@@H](CC(C)C)C(=O)N[C@@H](CC(N)=O)C(=O)N[C@@H](CO)C(=O)N[C@H]1CCC[C@@H]1C(=O)N[C@@H](CCCNC(=N)N)C(=O)N[C@@H](CCCNC(=N)N)C(=O)N[C@H](C(=O)N[C@H]1CNC[C@@H]1C(=O)N[C@@H](Cc1c[nH]c2ccccc12)C(=O)N[C@@H](CC(C)C)C(=O)N[C@@H](CCCNC(=N)N)C(=O)N[C@H]1CNC[C@@H]1C(=O)N[C@@H](CCCCN)C(=O)N[C@@H](CC(C)C)C(=O)N[C@@H](CCC(N)=O)C(=O)N[C@H]1CCC[C@@H]1C(=O)N[C@H](C(=O)N[C@@H](Cc1cnc[nH]1)C(=O)N[C@@H](CC(N)=O)C(=O)N[C@H]1CCC[C@@H]1C(N)=O)C(C)C)C(C)C (H-AVAEIQLMHQ[hArg]AK[X1]LNS[X1]RRV[X2]WLR[X2]KLQ[X1]VHN-{NH(1S,2S-2-CONH2-cPent)}) | 0.51 | 6.3
2 | CC[C@H](C)[C@H](NC(=O)[C@H](CCC(=O)O)NC(=O)C(C)(C)NC(=O)[C@@H](NC(=O)[C@H]1CCC[C@@H]1N)C(C)C)C(=O)N[C@@H](CCC(N)=O)C(=O)N[C@H]1CCC[C@@H]1C(=O)N[C@@H](CCSC)C(=O)N[C@@H](Cc1cnc[nH]1)C(=O)N[C@@H](CCC(N)=O)C(=O)N[C@@H](CCCCNC(=N)N)C(=O)N[C@@H](C)C(=O)N[C@@H](CCCCN)C(=O)N[C@H]1CCC[C@@H]1C(=O)N[C@@H](CC(C)C)C(=O)N[C@@H](CC(N)=O)C(=O)N[C@@H](CO)C(=O)N[C@H]1CCC[C@@H]1C(=O)N[C@@H](CCCNC(=N)N)C(=O)N[C@@H](CCCNC(=N)N)C(=O)N[C@H](C(=O)N[C@H]1CNC[C@@H]1C(=O)N[C@@H](Cc1c[nH]c2ccccc12)C(=O)N[C@@H](CC(C)C)C(=O)N[C@@H](CCCNC(=N)N)C(=O)N[C@H]1CNC[C@@H]1C(=O)N[C@@H](CCCCN)C(=O)N[C@@H](CC(C)C)C(=O)N[C@@H](CCC(N)=O)C(=O)N[C@H]1CCC[C@@H]1C(=O)N[C@H](C(=O)N[C@@H](Cc1cnc[nH]1)C(=O)N[C@@H](CC(N)=O)C(=O)N[C@H]1CCC[C@@H]1C(N)=O)C(C)C)C(C)C ({ACPC(1S,2S)}-V[Aib]EIQ[X1]MHQ[hArg]AK[X1]LNS[X1]RRV[X2]WLR[X2]KLQ[X1]VHN-{NH(1S,2S-2-CONH2-cPent)}) | 1.8 | 22
3 | CSCC[C@H](NC(=O)[C@H](CO)NC(=O)[C@H](CC(N)=O)NC(=O)[C@H](CC(C)C)NC(=O)[C@H](Cc1c[nH]c2ccccc12)NC(=O)[C@H](CCCCN)NC(=O)[C@H](C)NC(=O)[C@H](CCCCNC(=N)N)NC(=O)[C@H](CCC(N)=O)NC(=O)[C@H](Cc1cnc[nH]1)NC(=O)[C@H](CCSC)NC(=O)[C@H]1CCC[C@@H]1NC(=O)[C@H](CCC(N)=O)NC(=O)[C@H]1CCC[C@@H]1NC(=O)[C@H](CCC(=O)O)NC(=O)C(C)(C)NC(=O)[C@@H](NC(=O)[C@H]1CCC[C@@H]1N)C(C)C)C(=O)N[C@@H](CCCNC(=N)N)C(=O)N[C@@H](CCCNC(=N)N)C(=O)N[C@H](C(=O)N[C@@H](CCC(=O)O)C(=O)N[C@@H](Cc1c[nH]c2ccccc12)C(=O)N[C@@H](CC(C)C)C(=O)N[C@@H](CCCNC(=N)N)C(=O)N[C@@H](CCCCN)C(=O)N[C@@H](CCCCN)C(=O)N[C@@H](CC(C)C)C(=O)N[C@@H](CCC(N)=O)C(=O)N[C@@H](CC(=O)O)C(=O)N[C@H](C(=O)N[C@@H](Cc1cnc[nH]1)C(=O)N[C@@H](CC(N)=O)C(=O)N[C@@H](Cc1ccccc1)C(N)=O)C(C)C)C(C)C ({ACPC(1S,2S)}-V[Aib]E[X1]Q[X1]MHQ[hArg]AKWLNSMRRVEWLRKKLQDVHNF-NH2) | 0.4 | 4.9
4 | CSCC[C@@H](CC(=O)N[C@@H](CCC(=O)O)C(=O)N[C@@H](CCCNC(=N)N)C(=O)N[C@H](C(=O)N[C@@H](CCC(=O)O)CC(=O)N[C@@H](Cc1c[nH]c2ccccc12)C(=O)N[C@@H](CC(C)C)C(=O)N[C@@H](CCCNC(=N)N)C(=O)N[C@@H](CCCCN)CC(=O)N[C@@H](CCCCN)C(=O)N[C@@H](CC(C)C)C(=O)N[C@@H](CCC(N)=O)C(=O)N[C@@H](CC(=O)O)CC(=O)N[C@H](C(=O)N[C@@H](Cc1cnc[nH]1)C(=O)N[C@@H](CC(N)=O)C(=O)N[C@H](CC(N)=O)Cc1ccccc1)C(C)C)C(C)C)NC(=O)[C@H](CO)NC(=O)[C@H](CC(N)=O)NC(=O)[C@H](CC(C)C)NC(=O)C[C@H](Cc1c[nH]c2ccccc12)NC(=O)[C@H](CCCCN)NC(=O)CNC(=O)[C@H](CC(C)C)NC(=O)[C@H](CC(N)=O)NC(=O)[C@H](Cc1cnc[nH]1)NC(=O)[C@H](CCSC)NC(=O)[C@H]1CCC[C@@H]1NC(=O)[C@H](CCC(N)=O)NC(=O)[C@H]1CCC[C@@H]1NC(=O)[C@H](CCC(=O)O)NC(=O)[C@H](CO)NC(=O)[C@@H](NC(=O)[C@H]1CCC[C@@H]1N)C(C)C ({ACPC(1S,2S)}-VSE[X1]Q[X1]MHNLGK[β3hW]LNS[β3hM]ERV[β3hE]WLR[β3hK]KLQ[β3hD]VHN[β3hF]-NH2) | 167 | 2050
5 | CC[C@H](C)[C@H](NC(=O)[C@H](CCC(=O)O)NC(=O)[C@H](C)NC(=O)[C@@H](NC(=O)[C@H](C)N)C(C)C)C(=O)N[C@@H](CCC(N)=O)C(=O)N[C@@H](CC(C)C)C(=O)N[C@@H](CCSC)C(=O)N[C@@H](Cc1cnc[nH]1)C(=O)N[C@@H](CCC(N)=O)C(=O)N[C@@H](CCCCNC(=N)N)C(=O)N[C@@H](C)C(=O)N[C@@H](CCCCN)C(=O)N[C@@H](Cc1c[nH]c2ccccc12)C(=O)N[C@@H](CC(C)C)C(=O)N[C@@H](CC(N)=O)C(=O)N[C@@H](CO)C(=O)N[C@@H](CCSC)C(=O)N[C@@H](CCCNC(=N)N)C(=O)N[C@@H](CCCNC(=N)N)C(=O)N[C@H](C(=O)N[C@@H](CCC(=O)O)C(=O)N[C@@H](Cc1c[nH]c2ccccc12)C(=O)N[C@@H](CC(C)C)C(=O)N[C@@H](CCCNC(=N)N)C(=O)N[C@@H](CCCCN)C(=O)N[C@@H](CCCCN)C(=O)N[C@@H](CC(C)C)C(=O)N[C@@H](CCC(N)=O)C(=O)N[C@@H](CC(=O)O)C(=O)N[C@H](C(=O)N[C@@H](Cc1cnc[nH]1)C(=O)N[C@@H](CC(N)=O)C(=O)N[C@@H](Cc1ccccc1)C(N)=O)C(C)C)C(C)C (H-AVAEIQLMHQ[hArg]AKWLNSMRRVEWLRKKLQDVHNF-NH2) | 0.34 | 4.2
6 | CC[C@H](C)[C@H](NC(=O)[C@H](CCC(=O)O)NC(=O)C(C)(C)NC(=O)[C@@H](NC(=O)[C@H]1CCC[C@@H]1N)C(C)C)C(=O)N[C@@H](CCC(N)=O)C(=O)N[C@H]1CCC[C@@H]1C(=O)N[C@@H](CCSC)C(=O)N[C@@H](Cc1cnc[nH]1)C(=O)N[C@@H](CCC(N)=O)C(=O)N[C@@H](CCCCNC(=N)N)C(=O)N[C@@H](C)C(=O)N[C@@H](CCCCN)C(=O)N[C@H](CC(=O)N[C@@H](CC(C)C)C(=O)N[C@@H](CC(N)=O)C(=O)N[C@@H](CO)C(=O)N[C@@H](CCSC)CC(=O)N[C@@H](CCCNC(=N)N)C(=O)N[C@@H](CCCNC(=N)N)C(=O)N[C@H](C(=O)N[C@@H](CCC(=O)O)CC(=O)N[C@@H](Cc1c[nH]c2ccccc12)C(=O)N[C@@H](CC(C)C)C(=O)N[C@@H](CCCNC(=N)N)C(=O)N[C@@H](CCCCN)CC(=O)N[C@@H](CCCCN)C(=O)N[C@@H](CC(C)C)C(=O)N[C@@H](CCC(N)=O)C(=O)N[C@@H](CC(=O)O)CC(=O)N[C@H](C(=O)N[C@@H](Cc1cnc[nH]1)C(=O)N[C@@H](CC(N)=O)C(=O)N[C@H](CC(N)=O)Cc1ccccc1)C(C)C)C(C)C)Cc1c[nH]c2ccccc12 ({ACPC(1S,2S)}-V[Aib]EIQ[X1]MHQ[hArg]AK[β3hW]LNS[β3hM]RRV[β3hE]WLR[β3hK]KLQ[β3hD]VHN[β3hF]-NH2) | 0.83 | 10
7 | CSCC[C@@H](CC(=O)N[C@@H](CCCNC(=N)N)C(=O)N[C@@H](CCCNC(=N)N)C(=O)N[C@H](C(=O)N[C@@H](CCC(=O)O)CC(=O)N[C@@H](Cc1c[nH]c2ccccc12)C(=O)N[C@@H](CC(C)C)C(=O)N[C@@H](CCCNC(=N)N)C(=O)N[C@@H](CCCCN)CC(=O)N[C@@H](CCCCN)C(=O)N[C@@H](CC(C)C)C(=O)N[C@@H](CCC(N)=O)C(=O)N[C@@H](CC(=O)O)CC(=O)N[C@H](C(=O)N[C@@H](Cc1cnc[nH]1)C(=O)N[C@@H](CC(N)=O)C(=O)N[C@H](CC(N)=O)Cc1ccccc1)C(C)C)C(C)C)NC(=O)[C@H](CO)NC(=O)[C@H](CC(N)=O)NC(=O)[C@H](CC(C)C)NC(=O)C[C@H](Cc1c[nH]c2ccccc12)NC(=O)[C@H](CCCCN)NC(=O)[C@H](C)NC(=O)[C@H](CCCCNC(=N)N)NC(=O)[C@H](CCC(N)=O)NC(=O)[C@H](Cc1cnc[nH]1)NC(=O)[C@H](CCSC)NC(=O)[C@H]1CCC[C@@H]1NC(=O)[C@H](CCC(N)=O)NC(=O)[C@H]1CCC[C@@H]1NC(=O)[C@H](CCC(=O)O)NC(=O)C(C)(C)NC(=O)[C@@H](NC(=O)[C@H]1CCC[C@@H]1N)C(C)C ({ACPC(1S,2S)}-V[Aib]E[X1]Q[X1]MHQ[hArg]AK[β3hW]LNS[β3hM]RRV[β3hE]WLR[β3hK]KLQ[β3hD]VHN[β3hF]-NH2) | 0.79 | 9.7
